The values below come from patent publication US8029793B2, “Methods for inhibiting cell proliferation” (Chugai Seiyaku Kabushiki Kaisha, priority 2000, dated 2011).

Experiment [1] concerns TTA-1 cell line. Nature of the experiment: PTHrP stimulation test (3H-TdR incorporation). The settings on record: PTHrP(34-53) 0, 1, 10, 100 ng/mL, trypsin treatment at 24 hours and at 48 hours after addition. The format is cell-based, human. On the procedure: (§1) Briefly, anaplastic thyroid cell lines TTA-1 (hatched bars), TTA-2 (solid bars), and KTA-2 (unfilled bars) were seeded at 1×10^4 cells per well in a 96-well plate. Cells were incubated for two days in complete medium and then shifted to serum-free medium for day 3. Cells were treated with PTHrP (34-53) at 0, 1, 10, and 100 ng/mL and treated with trypsin 24 (top panel) and 48 (bottom panel) hours later. Cells were labeled with ^3H-TdR for 6 hours (0.25 μCi/well) and incorporation of label was measured by liquid scintillation counting. Measurements were performed in triplicate and average results are presented.
(§2) After treating TTA-1, TTA-2, and KTA-2 with trypsin, the number of viable cells not stained with trypan blue was counted with a hemocytometer. Subsequently, 1×10^4 cells were inoculated on a 96-well multi-plate (Falcon), and then cultured in a CO2 incubator at 37° C. for 2 days. On day 2 after culturing, the culture solution was replaced by a serum-free medium, and then culturing was performed for 1 day. PTHrP(34-53) (Calbiochem) at concentrations of 0 (PTHrP-free), 1, 10 and 100 ng/mL were added, followed by treatment with trypsin 24 and 48 hours later.
(§3) The cells were labeled with ^3H-TdR for 6 hours (0.25 μCi/well), collected, and then incorporation of ^3H-TdR was measured using a liquid scintillation counter. […]

The subject of experiment [2] is KTA-2 cell line. The experiment in a line: PTHrP stimulation test (3H-TdR incorporation). The format is cell-based, human. Particulars: PTHrP(34-53) 0, 1, 10, 100 ng/mL, trypsin treatment at 24 hours and at 48 hours after addition. On the procedure: as §1, §2, §3

“PTHrP(34-53): peptide fragment consisting the sequence of amino acids 34 to 53 of parathyroid hormone related peptide (Calbiochem) (AEIRATSEVSPNSKPSPNTK; listed as Homo sapiens)”: the “cell proliferation (incorporation of 3H-TdR)” value in experiment [1] and in experiment [2] was “proliferate depending on the concentration of PTHrP” throughout.
